{"source": "patent US10112941B2", "about": "“Tricyclic compounds as anticancer agents” (BRISTOL-MYERS SQUIBB COMPANY, priority 2013, dated 2018)", "data": [{"biological_target": "BRD4 (Homo sapiens, UniProt O60885)", "assay": "Time Resolved Fluorescence Resonance Energy Transfer (TR-FRET) binding assay, BRD4", "conditions": "one of the FRET assays described; read-out: FRET BRD4 IC50", "units": {"IC50": "nM"}, "values": [{"molecule": "Cc1noc(C)c1-c1cnc2c3ccc(S(C)(=O)=O)cc3n(C(c3ccccc3)C3CCC(F)(F)CC3)c2c1", "note": "(single isomer, unassigned) [Example 155, 4-{5-[(4,4-Difluorocyclohexyl)(phenyl)methyl]-7-methanesulfonyl-5H-pyrido[3,2-b]indol-3-yl}-3,5-dimethyl-1,2-oxazole]", "IC50": "< 25"}, {"molecule": "Cc1nnn(C)c1-c1cnc2c3ccc(S(C)(=O)=O)cc3n(C(c3ccccc3)C3CCC(F)(F)CC3)c2c1", "note": "(single isomer, unassigned) [Example 156, 5-{5-[(4,4-Difluorocyclohexyl)(phenyl)methyl]-7-methanesulfonyl-5H-pyrido[3,2-b]indol-3-yl}-1,4-dimethyl-1H-1,2,3-triazole]", "IC50": "< 5"}, {"molecule": "Cc1nnn(C)c1-c1cnc2c3ccc(S(C)(=O)=O)cc3n(C(c3ccccc3)C3CCC(F)(F)CC3)c2c1", "note": "(single isomer, unassigned) [Example 157, 5-{5-[(4,4-Difluorocyclohexyl)(phenyl)methyl]-7-methanesulfonyl-5H-pyrido[3,2-b]indol-3-yl}-1,4-dimethyl-1H-1,2,3-triazole]", "IC50": "< 5"}, {"molecule": "[2H]C([2H])([2H])c1nnn(C)c1-c1cnc2c3c(S(C)(=O)=O)cc(F)c(F)c3n(C(c3ccccc3)C3CCC(F)(F)CC3)c2c1", "note": "(single isomer, unassigned) [Example 164, 5-{5-[(4,4-Difluorocyclohexyl)(phenyl)methyl]-6,7-difluoro-9-methanesulfonyl-5H-pyrido[3,2-b]indol-3-yl}-4-(^2H3)methyl-1-methyl-1H-1,2,3-triazole]", "IC50": "< 5"}, {"molecule": "Cc1nnn(C)c1-c1cnc2c3ccc(C(C)(C)N)cc3n(C(c3ccccc3)C3CCOCC3)c2c1", "note": "(single isomer, unassigned) [Example 165, 2-[3-(Dimethyl-1H-1,2,3-triazol-5-yl)-5-[oxan-4-yl(phenyl)methyl]-5H-pyrido[3,2-b]indol-7-yl]propan-2-amine]", "IC50": "< 5"}, {"molecule": "Cc1nnn(C)c1-c1cnc2c3ccc(C(C)(C)N)cc3n(C(c3ccccc3)C3CCOCC3)c2c1", "note": "(single isomer, unassigned) [Example 166, 2-[3-(Dimethyl-1H-1,2,3-triazol-5-yl)-5-[oxan-4-yl(phenyl)methyl]-5H-pyrido[3,2-b]indol-7-yl]propan-2-amine]", "IC50": "< 5"}, {"molecule": "Cc1nnn(C)c1-c1cnc2c3ccc(C(C)(C)NC(=O)CN(C)C)cc3n(C(c3ccccc3)C3CCOCC3)c2c1", "note": "(single isomer, unassigned) [Example 167, N-{2-[3-(Dimethyl-1H-1,2,3-triazol-5-yl)-5-[oxan-4-yl(phenyl)methyl]-5H-pyrido[3,2-b]indol-7-yl]propan-2-yl}-2-(dimethylamino)acetamide]", "IC50": "< 5"}, {"molecule": "Cc1nnn(C)c1-c1cnc2c3ccc(C(C)(C)NC(=O)CN(C)C)cc3n(C(c3ccccc3)C3CCOCC3)c2c1", "note": "(single isomer, unassigned) [Example 168, N-{2-[3-(Dimethyl-1H-1,2,3-triazol-5-yl)-5-[oxan-4-yl(phenyl)methyl]-5H-pyrido[3,2-b]indol-7-yl]propan-2-yl}-2-(dimethylamino)acetamide]", "IC50": "< 5"}, {"molecule": "Cc1sc(=O)n(C)c1-c1cnc2c3ccc(C(C)(C)O)cc3n(C(c3ccccc3)C3CCOCC3)c2c1", "note": "(single isomer, unassigned) [Example 169, 4-[7-(2-Hydroxypropan-2-yl)-5-[oxan-4-yl(phenyl)methyl]-5H-pyrido[3,2-b]indol-3-yl]-3,5-dimethyl-2,3-dihydro-1,3-thiazol-2-one]", "IC50": "< 5"}, {"molecule": "Cc1sc(=O)n(C)c1-c1cnc2c3ccc(C(C)(C)O)cc3n(C(c3ccccc3)C3CCOCC3)c2c1", "note": "(single isomer, unassigned) [Example 170, 4-[7-(2-Hydroxypropan-2-yl)-5-[oxan-4-yl(phenyl)methyl]-5H-pyrido[3,2-b]indol-3-yl]-3,5-dimethyl-2,3-dihydro-1,3-thiazol-2-one]", "IC50": "< 1500"}, {"molecule": "[2H]C([2H])([2H])c1nnn(C)c1-c1cnc2c3c(F)cc(S(C)(=O)=O)cc3n(C(c3ccccc3)C3CCC(F)(F)CC3)c2c1", "note": "(single isomer, unassigned) [Example 199, 5-{5-[(4,4-Difluorocyclohexyl)(phenyl)methyl]-9-fluoro-7-methanesulfonyl-5H-pyrido[3,2-b]indol-3-yl}-4-(^2H3)methyl-1-methyl-1H-1,2,3-triazole]", "IC50": "< 5"}, {"molecule": "[2H]C([2H])([2H])c1nnn(C)c1-c1cnc2c3c(F)cc(S(C)(=O)=O)cc3n(C(c3ccccc3)C3CCC(F)(F)CC3)c2c1", "note": "(single isomer, unassigned) [Example 200, 5-{5-[(4,4-Difluorocyclohexyl)(phenyl)methyl]-9-fluoro-7-methanesulfonyl-5H-pyrido[3,2-b]indol-3-yl}-4-(^2H3)methyl-1-methyl-1H-1,2,3-triazole]", "IC50": "< 5"}, {"molecule": "Cc1nnn(C)c1-c1cnc2c3ccc(C(C)(C)O)cc3n(C(c3ccccc3)C3CCC(F)(F)CC3)c2c1", "note": "(single isomer, unassigned) [Example 205]", "IC50": "< 5"}, {"molecule": "Cc1nnn(C)c1-c1cnc2c3ccc(C(C)(C)O)cc3n(C(c3ccccc3)C3CCC(F)(F)CC3)c2c1", "note": "(single isomer, unassigned) [Example 206]", "IC50": "< 5"}, {"molecule": "[2H]C([2H])([2H])c1nnn(C)c1-c1cnc2c3c(OC)cc(S(C)(=O)=O)cc3n(C(c3ncccc3F)C3CCC(F)(F)CC3)c2c1", "note": "(single isomer, unassigned) [Example 213, 2-[(4,4-Difluorocyclohexyl)({7-methanesulfonyl-9-methoxy-3-[4-(^2H3)methyl-1-methyl-1H-1,2,3-triazol-5-yl]-5H-pyrido[3,2-b]indol-5-yl})methyl]-3-fluoropyridine]", "IC50": "< 5"}, {"molecule": "[2H]C([2H])([2H])c1nnn(C)c1-c1cnc2c3c(OC)cc(S(C)(=O)=O)cc3n(C(c3ncccc3F)C3CCC(F)(F)CC3)c2c1", "note": "(single isomer, unassigned) [Example 214, 2-[(4,4-Difluorocyclohexyl)({7-methanesulfonyl-9-methoxy-3-[4-(^2H3)methyl-1-methyl-1H-1,2,3-triazol-5-yl]-5H-pyrido[3,2-b]indol-5-yl})methyl]-3-fluoropyridine]", "IC50": "< 5"}, {"molecule": "COc1ccc(C(C2CCOCC2)n2c3cc(C(C)(C)O)ccc3c3ncc(-c4c(C)nnn4C)cc32)cc1", "note": "(single isomer, unassigned) [Example 249, 2-[3-(Dimethyl-1H-1,2,3-triazol-5-yl)-5-[(4-methoxyphenyl)(oxan-4-yl)methyl]-5H-pyrido[3,2-b]indol-7-yl]propan-2-ol]", "IC50": "< 5"}, {"molecule": "COc1ccc(C(C2CCOCC2)n2c3cc(C(C)(C)O)ccc3c3ncc(-c4c(C)nnn4C)cc32)cc1", "note": "(single isomer, unassigned) [Example 250, 2-[3-(Dimethyl-1H-1,2,3-triazol-5-yl)-5-[(4-methoxyphenyl)(oxan-4-yl)methyl]-5H-pyrido[3,2-b]indol-7-yl]propan-2-ol]", "IC50": "< 25"}, {"molecule": "Cc1nnn(C)c1-c1cnc2c3ccc(C(C)(C)O)cc3n(C(c3ccc(F)cc3)C3CCC3)c2c1", "note": "(single isomer, unassigned) [Example 251, 2-{5-[Cyclobutyl(4-fluorophenyl)methyl]-3-(dimethyl-1H-1,2,3-triazol-5-yl)-5H-pyrido[3,2-b]indol-7-yl}propan-2-ol]", "IC50": "< 5"}, {"molecule": "Cc1nnn(C)c1-c1cnc2c3ccc(C(C)(C)O)cc3n(C(CCC(F)(F)F)c3ccccn3)c2c1", "note": "(single isomer, unassigned) [Example 253, 2-[3-(Dimethyl-1H-1,2,3-triazol-5-yl)-5-[4,4,4-trifluoro-1-(pyridin-2-yl)butyl]-5H-pyrido[3,2-b]indol-7-yl]propan-2-ol]", "IC50": "< 5"}, {"molecule": "Cc1nnn(C)c1-c1cnc2c3ccc(C(C)(C)O)cc3n(C(CCC(F)(F)F)c3ccccn3)c2c1", "note": "(single isomer, unassigned) [Example 254, 2-[3-(Dimethyl-1H-1,2,3-triazol-5-yl)-5-[4,4,4-trifluoro-1-(pyridin-2-yl)butyl]-5H-pyrido[3,2-b]indol-7-yl]propan-2-ol]", "IC50": "< 5"}, {"molecule": "Cc1nnn(C)c1-c1cnc2c3c(S(C)(=O)=O)cccc3n(C(CCC(F)(F)F)c3ccccn3)c2c1", "note": "(single isomer, unassigned) [Example 258, 2-{1-[3-(Dimethyl-1H-1,2,3-triazol-5-yl)-9-methanesulfonyl-5H-pyrido[3,2-b]indol-5-yl]-4,4,4-trifluorobutyl}pyridine]", "IC50": "< 5"}, {"molecule": "Cc1cc(C(C2CCOCC2)n2c3cc(C(C)(C)O)ccc3c3ncc(-c4c(C)nnn4C)cc32)no1", "note": "(single isomer, unassigned) [Example 286, 2-[3-(Dimethyl-1H-1,2,3-triazol-5-yl)-5-[(5-methyl-1,2-oxazol-3-yl)(oxan-4-yl)methyl]-5H-pyrido[3,2-b]indol-7-yl]propan-2-ol]", "IC50": "< 5"}, {"molecule": "Cc1cc(C(C2CCOCC2)n2c3cc(C(C)(C)O)ccc3c3ncc(-c4c(C)nnn4C)cc32)no1", "note": "(single isomer, unassigned) [Example 287, 2-[3-(Dimethyl-1H-1,2,3-triazol-5-yl)-5-[(5-methyl-1,2-oxazol-3-yl)(oxan-4-yl)methyl]-5H-pyrido[3,2-b]indol-7-yl]propan-2-ol]", "IC50": "< 25"}, {"molecule": "Cc1nnn(C)c1-c1cnc2c3ccc(C(C)(C)O)c(F)c3n(C(c3ccncc3F)C3CCOCC3)c2c1", "note": "(single isomer, unassigned) [Example 288]", "IC50": "< 5"}, {"molecule": "Cc1nnn(C)c1-c1cnc2c3ccc(C(C)(C)O)c(F)c3n(C(c3ccncc3F)C3CCOCC3)c2c1", "note": "(single isomer, unassigned) [Example 289]", "IC50": "< 5"}, {"molecule": "Cc1cc(C(C2CCOCC2)n2c3cc(-c4c(C)nnn4C)cnc3c3ccc(C(C)(C)O)c(F)c32)no1", "note": "(single isomer, unassigned) [Example 290]", "IC50": "< 5"}, {"molecule": "Cc1nnn(C)c1-c1cnc2c3ccc(C(C)(C)O)cc3n(C(c3ncccn3)C3CCOCC3)c2c1", "note": "(single isomer, unassigned) [Example 292]", "IC50": "< 5"}, {"molecule": "Cc1nnn(C)c1-c1cnc2c3ccc(C(C)(C)O)cc3n(C(c3ncccc3F)C3CCOCC3)c2c1", "note": "(single isomer, unassigned) [Example 293]", "IC50": "< 5"}, {"molecule": "Cc1nnn(C)c1-c1cnc2c3ccc(C(C)(C)O)cc3n(C(c3ncccc3F)C3CCOCC3)c2c1", "note": "(single isomer, unassigned) [Example 294]", "IC50": "< 5"}, {"molecule": "Cc1cccc(C(C2CCOCC2)n2c3cc(C(C)(C)O)ccc3c3ncc(-c4c(C)nnn4C)cc32)n1", "note": "(single isomer, unassigned) [Example 295]", "IC50": "< 5"}]}]}
